In one assay the test system is VEGF-stimulated HUVECs. The experiment in a line: VEGF-induced migration of human endothelial cells (modified Boyden chamber). It is filed as cell-based. As to conditions: 5 ng/ml VEGF, six hours. From the text:
A migration assay familiar to those skilled in the art using vascular endothelial growth factor (VEGF)-stimulated HUVECs was employed to determine the effect of aurovertin B on endothelial cell migration.
The endothelial cells were routinely cultured as previously described.
Modified Boyden chambers in a 48-well format consisting of upper and lower wells separated by an 8-microns pore polycarbonate filter coated with collagen were used to study VEGF-induced migration of HUVECs (Paragon Bioservices, Baltimore, Md.). The endothelial cells were added to the lower wells and the migrating factor (5 ng/ml VEGF) was added to the upper wells. HUVECs were allowed to migrate from the lower to the upper wells for six hours at 37° C., 5% CO2. At the end of the incubation period, the filters were removed and washed gently. The cells on the filters were then fixed, stained with hematoxylin, and counted with a light microscope. The values obtained represent the mean of ten fields.

The next assay deals with bFGF-stimulated HUVECs. In words: bFGF-induced proliferation of human endothelial cells (HUVEC proliferation assay). It is filed as cell-based. As to conditions: 20 ng/ml bFGF, 48 hours, read-out: IC50 of Antiproliferative Effect. From the text: Proliferation assays familiar to those skilled in the art using human umbilical vein endothelial cells (HUVECs) were employed in order to determine the effect of various antibiotics on the growth of bFGF-stimulated HUVECs.
The materials for this experiments included endothelial cells (HUVECS) and media for their proliferation (Media 200, fetal bovine serum (FBS), gelatin, bFGF) (Paragon Bioservices, Baltimore, Md.), and Cell Titer 96 for detection of cell proliferation (Paragon Bioservices, Baltimore, Md.). Antibiotics aurovertin B, citreoviridin, oligomycin A, oligomycin B, oligomycin C, and efrapeptin D were all obtained from Sigma Chemical Company (St. Louis, Mo.).
HUVECs were routinely cultured to confluency in Media 200 containing 10% FBS. The cells were then trypsinized and plated in a 96-well plate pre-coated with 1% gelatin at 5000 cells per well per 100 μL Media 200 containing 2% FBS. The cells were allowed to adhere for 24 hours. Subsequently, the media were aspirated and fresh Media 200 containing 0.5% FBS were added to the wells. Addition of various concentrations of antibiotics in the presence and absence of 20 ng/ml bFGF followed. The assay plates were incubated at 37° C., 5% CO2 for 48 hours. At the end of the incubation period, cell proliferation was determined using cell counting (Cell Counter Model Z1, Coulter Incorporation, Miami, Fla.) or spectrophotometry. In the later case, the assay plates were incubated with Cell Titer 96 for 2 hours and the absorbance was recorded at 490 nm.

Assay [1] deals with murine B16F10 melanoma tumors. In words: Growth of murine B16F10 melanoma tumors in C57 mice. It is filed as in vivo. As to conditions: 2 mg/kg i.p. every day for 9 days. On the procedure: The effect of aurovertin B and efrapeptin D on the growth of murine B16F10 melanoma tumors (ATCC, Rockville, Md.) was investigated. Groups of four C57 mice (The Jackson Laboratory, BarHarbor, Me.) were injected subcutaneously with 5×10^4 B16F10 cells (The Jackson Laboratory, BarHarbor, Me.). The mice were subsequently treated i.p. with 2 mg/kg aurovertin B, 0.4 mg/kg efrapeptin D, or vehicle control. The treatment was initiated three days after the tumor inoculation and continued every day for 9 days. The tumor growth was recorded at the end of the experiment.

The text below walks through data of patent US6528489B1, “Mycotoxin derivatives as antimitotic agents” (Ergon Pharmaceuticals LLC, priority 1999, dated 2003).

For orientation: IC50 means the concentration needed to halve the response being measured. Regarding `CC[C@H]1O[C@]2(C)[C@H](OC(C)=O)[C@@]1(C)O[C@@H](/C=C/C=C/C=C/c1oc(=O)cc(OC)c1C)[C@@H]2O` [Aurovertin, aurovertin B], the “inhibition of VEGF-induced migration of HUVECs (in words)” value in the assay with VEGF-stimulated HUVECs was “inhibited VEGF-induced migration of HUVECs”. In addition, the IC50 in the assay with bFGF-stimulated HUVECs came to 10 µM. Moreover, in assay [1], the “mice that exhibited measurable, growing tumors at the end of the treatment” value is on record as 50%. For the same molecule, the “Number of mice that developed measurable tumors/Number of mice injected with tumor cells” value in assay [1] (started three days after tumor inoculation) is listed as 2/4. On to `COc1cc(=O)oc(/C=C/C=C/C=C/C(C)=C/[C@@]2(C)O[C@H](C)[C@](C)(O)[C@H]2O)c1C` [Citreoviridin, citreoviridin], for which, in the assay on bFGF-stimulated HUVECs, the IC50 turned out to be 10 µM. As for `CC[C@@H]1/C=C/C=C/C[C@H](C)[C@H](O)[C@](C)(O)C(=O)[C@H](C)[C@@H](O)[C@H](C)C(=O)[C@H](C)[C@@H](O)[C@H](C)/C=C/C(=O)O[C@H]2[C@@H](C)[C@@H](CC1)O[C@@]1(CC[C@@H](C)[C@@H](C[C@H](C)O)O1)[C@@H]2C` [Oligomycin A, oligomycin A], the IC50 in the assay with bFGF-stimulated HUVECs was 5 µM. Take `CC[C@H]1/C=C/C=C/C[C@@H](C)[C@H](O)[C@@](C)(O)C(=O)[C@@H](C)[C@H](O)[C@@H](C)C(=O)[C@@H](C)[C@H](O)[C@@H](C)/C=C/C(=O)O[C@@H]2[C@H](C)[C@H](CC1)O[C@@]1(O[C@@H](C[C@@H](C)O)[C@@H](C)CC1=O)[C@H]2C` [Oligomycin B, oligomycin B]: the IC50 with bFGF-stimulated HUVECs is 5 µM. With `CC[C@@H]1C=CC=CC[C@H](C)[C@@H](O)[C@@H](C)C(=O)[C@H](C)[C@@H](O)[C@H](C)C(=O)[C@H](C)[C@@H](O)[C@H](C)C=CC(=O)O[C@H]2[C@@H](C)[C@@H](CC1)O[C@@]1(CC[C@@H](C)[C@@H](C[C@H](C)O)O1)[C@@H]2C` [Oligomycin C, oligomycin C], the IC50 in the assay with bFGF-stimulated HUVECs was found to be 5 µM.
